How the values were obtained:
Assay in all cases: cell-based
hNav1.3 = hNav1.3 (Homo sapiens, UniProt Q9NY46); conditions: IonWorks Quattro, use-dependent protocol, hNav1.3; read-out: IWQ Use Nav1.3
hNav1.7 = hNav1.7 (Homo sapiens, UniProt Q15858); assay type: cell-based; conditions: IonWorks Quattro, use-dependent protocol, hNav1.7; read-out: IWQ Use Nav1.7
hNav1.5 = hNav1.5 (Homo sapiens, UniProt Q14524); conditions: IonWorks Quattro, use-dependent protocol, hNav1.5; read-out: IWQ Use Nav1.5
Sequence of hNav1.5 (Q14524 whole entry, looked up): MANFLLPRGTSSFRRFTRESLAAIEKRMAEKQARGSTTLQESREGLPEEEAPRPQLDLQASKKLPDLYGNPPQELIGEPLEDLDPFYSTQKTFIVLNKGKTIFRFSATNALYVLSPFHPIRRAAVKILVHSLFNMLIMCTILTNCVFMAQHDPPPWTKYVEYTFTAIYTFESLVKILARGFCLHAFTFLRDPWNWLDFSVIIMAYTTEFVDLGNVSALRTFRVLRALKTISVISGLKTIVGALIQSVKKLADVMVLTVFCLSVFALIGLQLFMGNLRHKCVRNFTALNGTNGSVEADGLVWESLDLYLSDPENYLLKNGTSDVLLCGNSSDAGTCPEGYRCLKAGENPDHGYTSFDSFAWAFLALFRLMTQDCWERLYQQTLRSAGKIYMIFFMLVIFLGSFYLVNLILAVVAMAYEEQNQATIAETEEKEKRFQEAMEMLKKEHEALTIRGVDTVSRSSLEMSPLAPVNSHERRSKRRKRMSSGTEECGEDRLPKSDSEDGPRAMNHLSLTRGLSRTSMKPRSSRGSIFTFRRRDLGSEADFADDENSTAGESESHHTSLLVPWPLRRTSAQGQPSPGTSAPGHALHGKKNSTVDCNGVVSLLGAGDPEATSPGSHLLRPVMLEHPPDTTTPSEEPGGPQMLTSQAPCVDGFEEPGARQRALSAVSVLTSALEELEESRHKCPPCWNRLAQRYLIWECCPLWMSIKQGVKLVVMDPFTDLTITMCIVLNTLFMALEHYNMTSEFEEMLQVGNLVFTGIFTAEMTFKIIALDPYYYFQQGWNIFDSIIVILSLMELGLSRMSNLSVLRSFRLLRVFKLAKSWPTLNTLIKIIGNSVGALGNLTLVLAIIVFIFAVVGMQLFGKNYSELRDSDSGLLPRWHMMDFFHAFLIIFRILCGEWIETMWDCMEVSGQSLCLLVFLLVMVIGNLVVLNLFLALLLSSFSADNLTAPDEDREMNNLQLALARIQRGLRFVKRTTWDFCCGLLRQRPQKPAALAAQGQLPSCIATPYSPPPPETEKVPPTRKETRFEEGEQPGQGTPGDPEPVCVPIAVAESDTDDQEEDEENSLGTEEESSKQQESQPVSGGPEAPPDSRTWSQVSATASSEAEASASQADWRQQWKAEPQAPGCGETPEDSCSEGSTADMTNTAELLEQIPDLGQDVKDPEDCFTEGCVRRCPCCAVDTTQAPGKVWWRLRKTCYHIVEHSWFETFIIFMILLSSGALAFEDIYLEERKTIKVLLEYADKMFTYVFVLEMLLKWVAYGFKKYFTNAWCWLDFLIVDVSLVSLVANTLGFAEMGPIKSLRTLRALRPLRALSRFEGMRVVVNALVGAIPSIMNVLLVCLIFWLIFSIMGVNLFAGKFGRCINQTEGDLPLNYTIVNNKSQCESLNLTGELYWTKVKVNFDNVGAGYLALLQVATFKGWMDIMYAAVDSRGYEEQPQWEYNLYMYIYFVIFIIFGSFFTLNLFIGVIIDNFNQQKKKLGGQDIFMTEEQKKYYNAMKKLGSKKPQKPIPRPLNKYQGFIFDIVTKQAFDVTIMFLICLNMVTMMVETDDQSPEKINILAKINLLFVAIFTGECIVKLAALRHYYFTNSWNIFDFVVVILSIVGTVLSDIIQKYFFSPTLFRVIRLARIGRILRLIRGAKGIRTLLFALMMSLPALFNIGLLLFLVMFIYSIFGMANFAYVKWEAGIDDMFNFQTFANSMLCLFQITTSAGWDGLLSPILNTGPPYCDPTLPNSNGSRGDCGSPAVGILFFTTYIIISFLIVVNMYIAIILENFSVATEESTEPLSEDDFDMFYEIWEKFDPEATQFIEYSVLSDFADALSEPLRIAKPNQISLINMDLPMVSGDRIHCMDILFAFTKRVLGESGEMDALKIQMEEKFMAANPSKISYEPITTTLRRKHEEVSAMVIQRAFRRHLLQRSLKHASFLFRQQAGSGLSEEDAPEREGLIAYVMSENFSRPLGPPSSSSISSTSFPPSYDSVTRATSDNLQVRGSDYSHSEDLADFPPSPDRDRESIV

Sequence of hNav1.7 (Q15858 whole entry, looked up): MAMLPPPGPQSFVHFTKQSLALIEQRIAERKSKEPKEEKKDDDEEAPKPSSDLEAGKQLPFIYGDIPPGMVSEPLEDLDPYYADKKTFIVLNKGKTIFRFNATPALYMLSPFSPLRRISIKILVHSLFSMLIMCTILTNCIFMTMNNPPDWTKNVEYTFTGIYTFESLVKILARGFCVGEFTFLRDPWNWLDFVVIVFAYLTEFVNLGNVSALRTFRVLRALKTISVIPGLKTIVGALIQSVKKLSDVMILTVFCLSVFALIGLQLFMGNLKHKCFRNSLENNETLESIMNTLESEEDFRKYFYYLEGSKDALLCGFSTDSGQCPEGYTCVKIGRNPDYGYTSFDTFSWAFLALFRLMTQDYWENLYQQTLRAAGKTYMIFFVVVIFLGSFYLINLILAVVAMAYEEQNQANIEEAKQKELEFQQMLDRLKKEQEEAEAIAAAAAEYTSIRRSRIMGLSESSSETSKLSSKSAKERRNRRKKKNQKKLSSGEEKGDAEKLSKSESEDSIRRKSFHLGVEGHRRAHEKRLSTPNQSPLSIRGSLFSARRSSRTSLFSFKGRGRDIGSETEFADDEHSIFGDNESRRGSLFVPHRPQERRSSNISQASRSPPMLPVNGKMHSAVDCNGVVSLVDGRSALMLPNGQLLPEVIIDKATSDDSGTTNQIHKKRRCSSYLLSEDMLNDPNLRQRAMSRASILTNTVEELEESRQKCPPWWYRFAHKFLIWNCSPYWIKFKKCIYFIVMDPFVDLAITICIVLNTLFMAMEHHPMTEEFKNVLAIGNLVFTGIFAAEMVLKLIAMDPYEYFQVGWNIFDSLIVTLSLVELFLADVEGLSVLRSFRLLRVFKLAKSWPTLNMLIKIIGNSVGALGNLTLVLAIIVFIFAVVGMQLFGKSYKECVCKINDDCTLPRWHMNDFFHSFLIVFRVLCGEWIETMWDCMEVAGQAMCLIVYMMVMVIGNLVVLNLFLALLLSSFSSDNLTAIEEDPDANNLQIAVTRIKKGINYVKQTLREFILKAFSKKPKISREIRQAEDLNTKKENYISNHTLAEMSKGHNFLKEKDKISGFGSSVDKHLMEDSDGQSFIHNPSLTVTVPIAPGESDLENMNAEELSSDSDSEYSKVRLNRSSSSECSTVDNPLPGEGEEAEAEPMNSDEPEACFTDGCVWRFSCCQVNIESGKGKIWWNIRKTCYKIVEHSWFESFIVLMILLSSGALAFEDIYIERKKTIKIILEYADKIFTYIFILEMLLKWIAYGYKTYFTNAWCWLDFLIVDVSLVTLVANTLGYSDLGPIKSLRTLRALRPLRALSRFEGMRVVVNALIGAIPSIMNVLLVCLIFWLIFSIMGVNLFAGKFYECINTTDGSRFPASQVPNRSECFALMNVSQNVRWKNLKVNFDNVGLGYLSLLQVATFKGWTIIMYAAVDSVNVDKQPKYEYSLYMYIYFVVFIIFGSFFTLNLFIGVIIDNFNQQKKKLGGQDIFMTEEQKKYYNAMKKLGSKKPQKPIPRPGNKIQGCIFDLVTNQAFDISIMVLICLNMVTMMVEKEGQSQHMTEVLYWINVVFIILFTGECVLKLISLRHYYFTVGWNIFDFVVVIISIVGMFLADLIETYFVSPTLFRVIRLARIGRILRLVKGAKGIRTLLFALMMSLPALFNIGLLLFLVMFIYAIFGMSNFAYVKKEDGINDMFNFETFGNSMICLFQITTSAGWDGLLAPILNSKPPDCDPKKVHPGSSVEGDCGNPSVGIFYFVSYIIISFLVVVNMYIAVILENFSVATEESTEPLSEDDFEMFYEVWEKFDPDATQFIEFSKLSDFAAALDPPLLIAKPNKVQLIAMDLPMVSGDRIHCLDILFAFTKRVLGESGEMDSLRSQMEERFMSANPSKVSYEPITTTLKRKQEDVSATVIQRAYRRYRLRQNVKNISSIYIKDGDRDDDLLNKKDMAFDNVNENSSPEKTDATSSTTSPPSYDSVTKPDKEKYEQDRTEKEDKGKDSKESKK

| Structure (SMILES) | IC50 (hNav1.3) [µM] | IC50 (hNav1.7) [µM] | IC50 (hNav1.5) [µM] |
| --- | --- | --- | --- |
| CCC[C@@H]1NC(=O)CNC(=O)[C@H](CC(C)C)NC(=O)[C@@H](NC(=O)[C@@H](N)CC(=O)O)CSSC[C@@H]2NC(=O)[C@@H]3CSSC[C@@H](C(=O)N[C@@H](CCCCN)C(=O)N[C@@H](Cc4ccc(O)cc4)C(=O)N[C@H](C(=O)N[C@@H](Cc4ccccc4)C(N)=O)C(C)C)NC(=O)[C@H](Cc4c[nH]c5ccccc45)NC(=O)[C@H](CCCCN)NC(=O)[C@H](Cc4c[nH]cn4)NC(=O)[C@H]([C@@H](C)O)NC(=O)[C@H](CCCNC(=N)N)NC(=O)[C@H](CO)NC(=O)[C@H](CSSC[C@H](NC(=O)[C@H](CCCCN)NC(=O)[C@H](CCCNC(=N)N)NC(=O)[C@H](CC(C)C)NC1=O)C(=O)N[C@@H]([C@@H](C)CC)C(=O)N1CCC[C@H]1C(=O)N[C@@H](CC(=O)O)C(=O)N[C@@H](CC(N)=O)C(=O)N[C@@H](CC(=O)O)C(=O)N[C@@H](CCCCN)C(=O)N3)NC(=O)[C@H](C(C)C)NC(=O)[C@H](CC(C)C)NC(=O)[C@H](CC(N)=O)NC(=O)[C@@H]1CCCN1C(=O)[C@H](CCCNC(=N)N)NC2=O [compound 637] | 0.71 | 0.095 | 8 |
| CCCC[C@@H]1NC(=O)CNC(=O)[C@H](CC(C)C)NC(=O)[C@@H](NC(=O)[C@@H](N)CC(=O)O)CSSC[C@@H]2NC(=O)[C@@H]3CSSC[C@@H](C(=O)N[C@@H](CCCCN)C(=O)N[C@@H](Cc4ccc(O)cc4)C(=O)N[C@H](C(=O)N[C@@H](Cc4ccccc4)C(N)=O)C(C)C)NC(=O)[C@H](Cc4c[nH]c5ccccc45)NC(=O)[C@H](CCCCN)NC(=O)[C@H](Cc4c[nH]cn4)NC(=O)[C@H]([C@@H](C)O)NC(=O)[C@H](CCCNC(=N)N)NC(=O)[C@H](CO)NC(=O)[C@H](CSSC[C@H](NC(=O)[C@H](CCCCN)NC(=O)[C@H](CCCNC(=N)N)NC(=O)[C@H](CC(C)C)NC1=O)C(=O)N[C@@H]([C@@H](C)CC)C(=O)N1CCC[C@H]1C(=O)N[C@@H](CC(=O)O)C(=O)N[C@@H](CC(N)=O)C(=O)N[C@@H](CC(=O)O)C(=O)N[C@@H](CCCCN)C(=O)N3)NC(=O)[C@H](C(C)C)NC(=O)[C@H](CC(C)C)NC(=O)[C@H](CC(N)=O)NC(=O)[C@@H]1CCCN1C(=O)[C@H](CCCNC(=N)N)NC2=O [compound 638] | 0.099 | 0.025 | 10.6 |
| CCCCCCCC[C@@H]1NC(=O)CNC(=O)[C@H](CC(C)C)NC(=O)[C@@H](NC(=O)[C@@H](N)CC(=O)O)CSSC[C@@H]2NC(=O)[C@@H]3CSSC[C@@H](C(=O)N[C@@H](CCCCN)C(=O)N[C@@H](Cc4ccc(O)cc4)C(=O)N[C@H](C(=O)N[C@@H](Cc4ccccc4)C(N)=O)C(C)C)NC(=O)[C@H](Cc4c[nH]c5ccccc45)NC(=O)[C@H](CCCCN)NC(=O)[C@H](Cc4c[nH]cn4)NC(=O)[C@H]([C@@H](C)O)NC(=O)[C@H](CCCNC(=N)N)NC(=O)[C@H](CO)NC(=O)[C@H](CSSC[C@H](NC(=O)[C@H](CCCCN)NC(=O)[C@H](CCCNC(=N)N)NC(=O)[C@H](CC(C)C)NC1=O)C(=O)N[C@@H]([C@@H](C)CC)C(=O)N1CCC[C@H]1C(=O)N[C@@H](CC(=O)O)C(=O)N[C@@H](CC(N)=O)C(=O)N[C@@H](CC(=O)O)C(=O)N[C@@H](CCCCN)C(=O)N3)NC(=O)[C@H](C(C)C)NC(=O)[C@H](CC(C)C)NC(=O)[C@H](CC(N)=O)NC(=O)[C@@H]1CCCN1C(=O)[C@H](CCCNC(=N)N)NC2=O [compound 639] | 0.033 | 0.015 | 1.7 |

From US9340590B2 (priority 2011, dated 2016)
